Measurements from ChEMBL document CHEMBL3797118, “New Colchicine-Derived Triazoles and Their Influence on Cytotoxicity and Microtubule Morphology” (ACS Med Chem Lett, 2016).
Active and inactive are the calls of the source. The calls are words filed in the database; no cut-off is given here.

Assays:
[1] = Cytotoxicity against human THP1 cells after 24 hrs by Celltiter-Glo luminescent cell viability assay; type: functional, cell-based; conditions: THP-1, 24 h
Jurkat = test: Cytotoxicity against human Jurkat cells after 48 hrs by Celltiter-Glo luminescent cell viability assay; type: functional, cell-based
HeLa = test: Cytotoxicity against human HeLa cells after 48 hrs by Celltiter-Glo luminescent cell viability assay; type: functional, cell-based
A549 = test: Cytotoxicity against human A549 cells after 48 hrs by Celltiter-Glo luminescent cell viability assay; type: functional, cell-based; conditions: A549, 48 h
[2] = Cytotoxicity against human SKMES1 cells after 48 hrs by Celltiter-Glo luminescent cell viability assay; type: functional, cell-based; conditions: SK-MES-1, 48 h
MDA-MB-231 [3] = test: Inhibition of microtubule network formation in human MDA-MB-231 cells at 100 nM after 24 hrs by DAPI staining based immunofluorescence microscopic analysis; type: cell-based
MDA-MB-231 [4] = test: Inhibition of microtubule network formation in human MDA-MB-231 cells assessed as centrosome declustering at 100 nM after 24 hrs by DAPI staining based immunofluorescence microscopic analysis; type: cell-based
H1975 = test: Inhibition of microtubule network formation in human H1975 cells assessed as centrosome declustering at 500 nM after 24 hrs by DAPI staining based immunofluorescence microscopic analysis; type: cell-based

| SMILES | IC50 [1] | IC50 (Jurkat) | also measured |
| --- | --- | --- | --- |
| COc1cc2c(c(OC)c1OC)-c1ccc(OC)c(=O)cc1[C@@H](n1cc(CCC(=O)OCc3ccccc3)nn1)CC2 | 31 nM |  |  |
| COc1cc2c(c(OC)c1OC)-c1ccc(OC)c(=O)cc1[C@@H](n1cc(CCCCC(=O)OCc3ccccc3)nn1)CC2 | 35.2 nM | 16.7 nM |  |
| COc1cc2c(c(OC)c1OC)-c1ccc(OC)c(=O)cc1[C@@H](n1cc(CCC(=O)OCc3ccccc3F)nn1)CC2 | 12.7 nM | 9.7 nM |  |
| COc1cc2c(c(OC)c1OC)-c1ccc(OC)c(=O)cc1[C@@H](n1cc(CCC(=O)OCc3ccc(F)cc3)nn1)CC2 | 5.1 nM | 2.9 nM | IC50 (HeLa; read-out: IC50): 4.9 nM; IC50 (A549): 5.5 nM; IC50 [2]: 3.5 nM; inhibition (MDA-MB-231 [3]): Active |
| COc1cc2c(c(OC)c1OC)-c1ccc(OC)c(=O)cc1[C@@H](N=[N+]=[N-])CC2 | 20.9 nM |  |  |
| COc1cc2c(c(OC)c1OC)-c1ccc(OC)c(=O)cc1[C@@H](n1cc(COC(=O)[C@H](Cc3c[nH]c4ccccc34)NC(=O)OC(C)(C)C)nn1)CC2 | 7.3 nM |  |  |
| COc1cc2c(c(OC)c1OC)-c1ccc(OC)c(=O)cc1[C@@H](n1cc(CCC(=O)OCc3cccc(F)c3)nn1)CC2 | 9.3 nM | 4.9 nM |  |
| COc1cc2c(c(OC)c1OC)-c1ccc(OC)c(=O)cc1[C@@H](n1cc(COC(=O)CCCCCNC(=O)OC(C)(C)C)nn1)CC2 | 5.4 nM | 9.4 nM |  |
| COc1cc2c(c(OC)c1OC)-c1ccc(OC)c(=O)cc1[C@@H](n1cc(COC(=O)[C@H](Cc3ccccc3)NC(=O)OCc3ccccc3)nn1)CC2 | 23.3 nM | 21.4 nM |  |
| COc1cc2c(c(OC)c1OC)-c1ccc(OC)c(=O)cc1[C@@H](n1cc(COC(=O)[C@H](Cc3ccccc3)NC(=O)OC(C)(C)C)nn1)CC2 | 4.1 nM | 15.3 nM | IC50 (HeLa; read-out: IC50): 70.7 nM; IC50 (A549): 73.7 nM; IC50 [2]: 39.2 nM; inhibition (MDA-MB-231 [3]): Active; inhibition (MDA-MB-231 [4]): Active; inhibition (H1975): Active |
| COc1cc2c(c(OC)c1OC)-c1ccc(OC)c(=O)cc1[C@@H](n1cc(COC(=O)CCNC(=O)OC(C)(C)C)nn1)CC2 | 5.7 nM | 5 nM | IC50 (HeLa; read-out: IC50): 20 nM; IC50 (A549): 25.4 nM; IC50 [2]: 9.6 nM; inhibition (MDA-MB-231 [3]): Active |
| COc1cc2c(c(OC)c1OC)-c1ccc(OC)c(=O)cc1[C@@H](n1cc(COC(=O)[C@H](Cc3ccccc3)NC(C)=O)nn1)CC2 | 25.5 nM | 84.2 nM |  |
| CC(=O)O[C@H]1C(=O)[C@@]2(C)[C@H]([C@H](OC(=O)c3ccccc3)[C@]3(O)C[C@H](OC(=O)[C@H](O)[C@@H](NC(=O)c4ccccc4)c4ccccc4)C(C)=C1C3(C)C)[C@]1(OC(C)=O)CO[C@@H]1C[C@@H]2O [PACLITAXEL] |  |  | IC50 (HeLa): 18.9 nM; IC50 (A549): 13.2 nM; IC50 [2]: 13.5 nM; inhibition (MDA-MB-231 [3]): inactive |
| COc1cc2c(c(OC)c1OC)-c1ccc(OC)c(=O)cc1[C@@H](n1cc(COC(=O)[C@H](CC(C)C)NC(=O)OC(C)(C)C)nn1)CC2 | 6.6 nM |  |  |
| COc1cc2c(c(OC)c1OC)-c1ccc(OC)c(=O)cc1[C@@H](n1cc(CNC(=O)OC(C)(C)C)nn1)CC2 | 23.1 nM |  |  |
| COc1cc2c(c(OC)c1OC)-c1ccc(OC)c(=O)cc1[C@@H](n1cc(COC(=O)[C@@H](N)Cc3ccccc3)nn1)CC2 | 24 nM | 25.1 nM |  |
| COc1cc2c(c(OC)c1OC)-c1ccc(OC)c(=O)cc1[C@@H](n1cc(C(=O)OCc3ccccc3)nn1)CC2 | 140 nM |  |  |
| COc1cc2c(c(OC)c1OC)-c1ccc(OC)c(=O)cc1[C@@H](n1cc(COC(=O)[C@@H](NC(=O)OC(C)(C)C)C(C)C)nn1)CC2 | 8.1 nM |  |  |
| COc1cc2c(c(OC)c1OC)-c1ccc(OC)c(=O)cc1[C@@H](NC(C)=O)CC2 [COLCHICINE] | 20.4 nM |  | IC50 (HeLa; read-out: IC50): 21.8 nM; IC50 (A549): 23.9 nM; IC50 [2]: 18.6 nM; inhibition (MDA-MB-231 [3]): Active |
| COc1cc2c(c(OC)c1OC)-c1ccc(OC)c(=O)cc1[C@@H](n1cc(COC(=O)[C@H](CCSC)NC(=O)OC(C)(C)C)nn1)CC2 | 10.6 nM |  |  |
| CC[C@H](C)[C@H](NC(=O)OC(C)(C)C)C(=O)OCc1cn([C@H]2CCc3cc(OC)c(OC)c(OC)c3-c3ccc(OC)c(=O)cc32)nn1 | 17.3 nM |  |  |
